Test results published in paper PMC2972656 (Bioorganic & medicinal chemistry, 2010).
Structures can show the parent of a compound that is named as a salt. Values belong to the compound of their own block, whether it stands above or below them.

Columns and labels:
α1β3γ2 GABAA/BzR [1] = biological target: T1, α1β3γ2 GABAA/BzR (Homo sapiens, UniProt P14867+P18507); test: [3H]flunitrazepam competition binding, α1β3γ2; settings: for selectivity for the α1β3γ2 subtype: enantiomeric sec-butyl esters
α5β3γ2 GABAA/BzR = α5β3γ2 GABAA/BzR (Homo sapiens, UniProt P18507+P31644); test: [3H]flunitrazepam competition binding, α5β3γ2
BzR = test: Binding to BzR, overall statement; parameters: species or system human; settings: Boc protection at position-9
other receptors = test: NIMH supported PDSP screen; format: binding
α1β3γ2 GABAA/BzR [2] = biological target: T1, α1β3γ2 GABAA/BzR; settings: binding; cited from earlier work
[3] = test system: alcohol preferring (P) rats; settings: 15–60 mg/kg, comparable with chlordiazepoxide; cited from earlier work
α2β3γ2 GABAA/BzR = α2β3γ2 GABAA/BzR (Homo sapiens, UniProt P18507+P47869); test: [3H]flunitrazepam competition binding, α2β3γ2

selectivity for α1 isoforms over α5 isoforms (α1β3γ2 GABAA/BzR [1]; binding): ~70 fold
SMILES: C[C@@H](OC(=O)c1cc2c(cn1)[nH]c1ccccc12)C(F)(F)F [compound 22, (R)-1,1,1-Trifluoroisopropyl β-carboline-3-carboxylate]

Ki (α5β3γ2 GABAA/BzR): ≥ 1000 nM
SMILES: CC(C)COc1cc2c(cn1)[nH]c1ccccc12 [compound 37]

binding to BzR (BzR): did not bind to BzR at all
SMILES: C#Cc1ccc2c(c1)c1cc(C(=O)OC(C)(C)C)ncc1n2C(=O)OC(C)(C)C [compound 40]

SMILES: CC[C@H](C)OC(=O)c1cc2c(cn1)[nH]c1ccccc12 [compound 23, (S)-β-Carboline-3-carboxylic acid sec-butyl ester]
selectivity for the α1β3γ2 subtype (α1β3γ2 GABAA/BzR [1]; binding): ~4 fold | Ki (α5β3γ2 GABAA/BzR): 1440 nM

binding to BzR (BzR): did not bind to BzR at all
SMILES: CC(C)(C)OC(=O)c1cc2c3cc(I)ccc3n(C(=O)OC(C)(C)C)c2cn1 [compound 41]

Ki (α1β3γ2 GABAA/BzR [1]): 830 nM
SMILES: c1ccc(COc2cc3c4ccccc4nc-3c[nH]2)cc1 [compound 35, 3-benzyloxy β-carboline]

SMILES: CCCOc1cc2c(cn1)[nH]c1ccccc12 [2(3-PBC), 3-propoxy-β-carboline hydrochloride]
interactions at other receptors (other receptors): neither βCCT, 3PBC, nor WYS8 exhibited significant interactions at other receptors | selectivity for the α1 site over the α5 subtype (α1β3γ2 GABAA/BzR [2]): over 150 fold | selectivity for the α1 subtype over the α2 and α3 receptors (α1β3γ2 GABAA/BzR [2]): 10 fold | effects in the plus maze [3]: anxiolytic effects

SMILES: CC[C@@H](C)OC(=O)c1cc2c(cn1)[nH]c1ccccc12 [compound 24, (R)-β-Carboline-3-carboxylic acid sec-butyl ester]
selectivity for the α1β3γ2 subtype (α1β3γ2 GABAA/BzR [1]; binding): ~4 fold | Ki (α2β3γ2 GABAA/BzR): 32.5 nM

SMILES: C#Cc1ccc2[nH]c3cnc(C(=O)OC(C)(C)C)cc3c2c1 [7(WYS8), 6-Ethynl-9H-β-carboline-3-carboxylic acid t-butyl ester]
interactions at other receptors (other receptors): neither βCCT, 3PBC, nor WYS8 exhibited significant interactions at other receptors
